According to patent publication US8324245B2, “Quinoline derivative and quinazoline derivative inhibiting self-phosphorylation of hepatocytus proliferator receptor, and medicinal composition containing the same” (Kyowa Hakko Kirin Co., Ltd., priority 2001, dated 2012):
pIC50: −log10 of the molar value.

Biological target: T1, met (HGF receptor) in human gastric cancer cells MKN45 (Homo sapiens, UniProt P08581)
T1 construct: endogenous in cells; host or cells: MKN45 human gastric cancer cells
Assay: Inhibitory activity against met-autophosphorylation using ELISA method (2), MKN45 cells, HGF-independent
Type: cell-based
Experimental: Cells were cultured with RPMI medium containing 0.1% fetal calf serum in 96-well flat-bottom plate in an amount of 3×10^4 per well, and were incubated at 37° C. overnight. The medium was then replaced by a fresh RPMI medium containing 0.1% fetal calf serum. A solution of the test compound in dimethyl sulfoxide was added to each well, and the incuvation was continued at 37° C. for additional one hr. The medium was removed, the cells were washed with phosphate buffered saline (pH 7.4), and 50 μl of a lysis buffer (20 mM HEPES (pH 7.4), 150 mM NaCl, 0.2% Triton X-100, 10% glycerol, 5 mM sodium orthovanadylate, 5 mM disodium ethylenediaminetetraacetate, and 2 mM Na4P2O7) was then added thereto. The mixture was shaken at 4° C. for 2 hr to prepare a cell extract.
Separately, phosphate buffered saline (50 μl, pH 7.4) containing 5 μg/ml of anti-phospho-tyrosine antibody (PY20; purchased from Transduction Laboratories) was added to a microplate for ELISA (Maxisorp; purchased from NUNC), followed by gentle agitation at 4° C. overnight to coat the surface of the wells with the antibody. After washing of the plate, 300 μl of a blocking solution was added, followed by gentle agitation at room temperature for 2 hr to perform blocking. After washing, the whole quantity of the cell extract was transferred to the wells, and the plate was then allowed to stand at 4° C. overnight. After washing, an anti-HGF receptor antibody (h-Met (C-12), purchased from Santa Cruz Biotechnology) was allowed to react at room temperature for one hr, and, after washing, a peroxidase-labeled anti-rabbit Ig antibody (purchased from Amersham) was allowed to react at room temperature for one hr. After washing, a chromophoric substrate for peroxidase (purchased from Sumitomo Bakelite Co., Ltd.) was added thereto to initiate a reaction. After a suitable level of color development, a reaction termination solution was added to stop the reaction, and the absorbance at 450 nm was measured with a microplate reader.

T1 sequence (P08581 25-1390): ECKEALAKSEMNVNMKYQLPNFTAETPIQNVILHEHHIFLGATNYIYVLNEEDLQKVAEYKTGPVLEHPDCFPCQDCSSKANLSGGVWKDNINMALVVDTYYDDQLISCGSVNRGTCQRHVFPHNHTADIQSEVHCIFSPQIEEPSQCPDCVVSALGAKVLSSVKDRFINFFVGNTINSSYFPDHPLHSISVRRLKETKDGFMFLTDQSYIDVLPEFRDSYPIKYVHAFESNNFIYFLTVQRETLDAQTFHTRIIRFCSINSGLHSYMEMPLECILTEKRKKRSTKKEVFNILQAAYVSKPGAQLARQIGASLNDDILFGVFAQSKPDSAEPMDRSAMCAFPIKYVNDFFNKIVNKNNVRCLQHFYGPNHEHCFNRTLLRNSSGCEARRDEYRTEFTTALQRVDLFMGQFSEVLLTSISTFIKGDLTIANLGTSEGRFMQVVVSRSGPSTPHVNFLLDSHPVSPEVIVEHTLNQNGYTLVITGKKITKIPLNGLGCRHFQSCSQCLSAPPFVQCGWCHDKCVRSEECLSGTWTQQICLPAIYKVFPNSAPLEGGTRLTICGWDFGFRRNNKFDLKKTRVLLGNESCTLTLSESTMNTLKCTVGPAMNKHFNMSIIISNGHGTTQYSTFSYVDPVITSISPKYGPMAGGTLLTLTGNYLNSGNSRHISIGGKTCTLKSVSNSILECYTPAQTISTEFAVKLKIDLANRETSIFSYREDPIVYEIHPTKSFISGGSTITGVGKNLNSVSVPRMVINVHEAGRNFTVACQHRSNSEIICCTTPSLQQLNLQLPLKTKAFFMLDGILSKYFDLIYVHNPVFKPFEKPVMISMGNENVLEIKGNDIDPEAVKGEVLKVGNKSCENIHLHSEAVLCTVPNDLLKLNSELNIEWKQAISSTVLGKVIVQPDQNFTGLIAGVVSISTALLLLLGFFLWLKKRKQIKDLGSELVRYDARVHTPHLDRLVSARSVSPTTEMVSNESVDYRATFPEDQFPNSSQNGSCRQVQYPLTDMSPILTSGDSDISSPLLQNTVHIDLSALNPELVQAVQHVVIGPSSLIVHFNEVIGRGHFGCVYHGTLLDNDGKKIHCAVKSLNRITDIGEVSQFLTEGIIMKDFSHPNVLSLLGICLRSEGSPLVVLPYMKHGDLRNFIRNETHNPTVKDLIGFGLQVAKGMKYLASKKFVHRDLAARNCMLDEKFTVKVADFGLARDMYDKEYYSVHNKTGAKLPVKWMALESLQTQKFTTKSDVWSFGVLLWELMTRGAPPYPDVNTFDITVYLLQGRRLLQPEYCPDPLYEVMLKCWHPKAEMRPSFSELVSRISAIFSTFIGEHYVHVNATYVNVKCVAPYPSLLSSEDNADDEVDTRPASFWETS

| SMILES | pIC50 |
| --- | --- |
| COc1cc2nccc(Oc3ccc(NC(=S)NC(=O)Cc4ccc(F)cc4)cc3Cl)c2cc1OC [Example 73, 1-[3-chloro-4-(6,7-dimethoxyquinolin-4-yloxy)-phenyl]-3-[2-(4-fluorophenyl)acetyl]thiourea] | 7.55 |
| COc1cc2nccc(Oc3ccc(NC(=S)NC(=O)Cc4cccc(F)c4)c(F)c3)c2cc1OC [Example 74, 1-[4-(6,7-dimethoxyquinolin-4-yloxy)-2-fluoro-phenyl]-3-[2-(3-fluorophenyl)acetyl]thiourea] | 6.74 |
| COc1cc2nccc(Oc3ccc(NC(=S)NC(=O)Cc4cccc(F)c4)cc3F)c2cc1OC [Example 75, 1-[4-(6,7-dimethoxyquinolin-4-yloxy)-3-fluoro-phenyl]-3-[2-(3-fluorophenyl)acetyl]thiourea] | 7.47 |
| COc1cc2nccc(Oc3ccc(NC(=S)NC(=O)Cc4cccc(F)c4)cc3Cl)c2cc1OC [Example 76, 1-[3-chloro-4-(6,7-dimethoxyquinolin-4-yloxy)-phenyl]-3-[2-(3-fluorophenyl)acetyl]thiourea] | 7.29 |
| COc1cc2nccc(Oc3ccc(NC(=S)NC(=O)Cc4cccc(C)c4)cc3)c2cc1OC [Example 77, 1-[4-(6,7-dimethoxyquinolin-4-yloxy)phenyl]-3-(2-m-tolylacetyl)thiourea] | 6.75 |
| COc1cc2nccc(Oc3ccc(NC(=S)NC(=O)Cc4cccc(C)c4)cc3Cl)c2cc1OC [Example 78, 1-[3-chloro-4-(6,7-dimethoxyquinolin-4-yloxy)-phenyl]-3-(2-m-tolylacetyl)thiourea] | 7.18 |
| COc1cc2nccc(Oc3ccc(NC(=S)NC(=O)Cc4ccccc4C)cc3)c2cc1OC [Example 79, 1-[4-(6,7-dimethoxyquinolin-4-yloxy)phenyl]-3-(2-o-tolylacetyl)thiourea] | 6.84 |
| COc1cc2nccc(Oc3ccc(NC(=S)NC(=O)Cc4ccccc4F)c(F)c3)c2cc1OC [Example 80, 1-[4-(6,7-dimethoxyquinolin-4-yloxy)-2-fluoro-phenyl]-3-[2-(2-fluorophenyl)acetyl]thiourea] | 7.52 |
| COc1cc2nccc(Oc3ccc(NC(=S)NC(=O)Cc4ccccc4F)cc3F)c2cc1OC [Example 81, 1-[4-(6,7-dimethoxyquinolin-4-yloxy)-3-fluoro-phenyl]-3-[2-(2-fluorophenyl)acetyl]thiourea] | 7.56 |
| COc1cc2nccc(Oc3ccc(NC(=S)NC(=O)Cc4ccc(C)cc4)cc3Cl)c2cc1OC [Example 82, 1-[3-chloro-4-(6,7-dimethoxyquinolin-4-yloxy)-phenyl]-3-(2-p-tolylacetyl)thiourea] | 7.13 |
| COc1ccccc1CC(=O)NC(=S)Nc1ccc(Oc2ccnc3cc(OC)c(OC)cc23)c(F)c1 [Example 83, 1-[4-(6,7-dimethoxyquinolin-4-yloxy)-3-fluoro-phenyl]-3-[2-(2-methoxyphenyl)acetyl]thiourea] | 7.41 |
| COc1cc2nccc(Oc3ccc(NC(=S)NC(=O)Cc4ccccc4C)cc3F)c2cc1OC [Example 84, 1-[4-(6,7-dimethoxyquinolin-4-yloxy)-3-fluorophenyl]-3-(2-o-tolylacetyl)thiourea] | 7.40 |
| COc1cc2nccc(Oc3ccc(NC(=S)NC(=O)Cc4ccsc4)cc3F)c2cc1OC [Example 85, 1-[4-(6,7-dimethoxyquinolin-4-yloxy)-3-fluoro-phenyl]-3-(2-thiophen-3-ylacetyl)thiourea] | 7.31 |
| COc1cc(Oc2ccnc3cc(OC)c(OC)cc23)ccc1NC(=S)NC(=O)Cc1ccsc1 [Example 86, 1-[4-(6,7-dimethoxyquinolin-4-yloxy)-2-methoxyphenyl]-3-(2-thiophen-3-ylacetyl)thiourea] | 7.63 |
| COc1cc2nccc(Oc3ccc(NC(=S)NC(=O)Cc4ccccc4Cl)cc3F)c2cc1OC [Example 87, 1-[2-(2-chlorophenyl)acetyl]-3-[4-(6,7-dimethoxyquinolin-4-yloxy)-3-fluorophenyl]thiourea] | 6.70 |
| COc1cc2nccc(Oc3ccc(NC(=S)NC(=O)CC4C5CCC4CC5)cc3)c2cc1OC (stereo not shown) [Example 88, 1-(2-bicyclo[2.2.1]hepto-7-ylacetyl)-3-[4-(6,7-dimethoxyquinolin-4-yloxy)phenyl]thiourea] | 7.31 |
| COc1cc2nccc(Oc3ccc(NC(=S)NC(=O)CC4C5CCC4CC5)c(F)c3)c2cc1OC (stereo not shown) [Example 89] | 7.28 |

| SMILES | pIC50 |
| --- | --- |
| COc1cc2nccc(Oc3ccc(NC(=S)NC(=O)CC4C5CCC4CC5)cc3F)c2cc1OC (stereo not shown) [Example 90, 1-(2-bicyclo[2.2.1]hepto-7-ylacetyl)-3-[4-(6,7-dimethoxyquinolin-4-yloxy)-3-fluorophenyl]thiourea] | 7.55 |
| COc1cc2nccc(Oc3ccc(NC(=S)NC(=O)CC4C5CCC4CC5)cc3Cl)c2cc1OC (stereo not shown) [Example 91, 1-(2-bicyclo[2.2.1]hepto-7-ylacetyl)-3-[3-chloro-4-(6,7-dimethoxyquinolin-4-yloxy)phenyl]thiourea] | 7.40 |
| COc1cc2nccc(Oc3ccc(NC(=S)NC(=O)Cc4ccc(C)cc4)c(F)c3)c2cc1OC [Example 92, 1-[4-(6,7-dimethoxyquinolin-4-yloxy)-2-fluoro-phenyl]-3-(2-p-tolylacetyl)thiourea] | 6.83 |
| COc1cc2nccc(Oc3ccc(NC(=S)NC(=O)Cc4ccc(F)cc4F)c(F)c3)c2cc1OC [Example 93, 1-[2-(2,4-difluorophenyl)acetyl]-3-[4-(6,7-dimethoxyquinolin-4-yloxy)-2-fluorophenyl]thiourea] | 6.92 |
| COc1cc2nccc(Oc3ccc(NC(=S)NC(=O)Cc4ccc(F)cc4F)cc3F)c2cc1OC [Example 94, 1-[2-(2,4-difluorophenyl)acetyl]-3-[4-(6,7-dimethoxyquinolin-4-yloxy)-3-fluorophenyl]thiourea] | 7.51 |
| COc1cc2nccc(Oc3ccc(NC(=S)NC(=O)Cc4c(F)cccc4F)cc3F)c2cc1OC [Example 95, 1-[2-(2,6-difluorophenyl)acetyl]-3-[4-(6,7-dimethoxyquinolin-4-yloxy)-3-fluorophenyl]thiourea] | 7.38 |
| COc1cc2nccc(Oc3ccc(NC(=S)NC(=O)Cc4cc(F)ccc4F)c(F)c3)c2cc1OC [Example 96, 1-[2-(2,5-difluorophenyl)acetyl]-3-[4-(6,7-dimethoxyquinolin-4-yloxy)-2-fluorophenyl]thiourea] | 6.77 |
| COc1cc2nccc(Oc3ccc(NC(=S)NC(=O)Cc4c(Cl)cccc4Cl)cc3F)c2cc1OC [Example 97, 1-[2-(2,6-dichlorophenyl)acetyl]-3-[4-(6,7-dimethoxyquinolin-4-yloxy)-3-fluorophenyl]thiourea] | 7.42 |
| COc1cc2nccc(Oc3ccc(NC(=O)CC(=O)Nc4ccc(F)cc4F)c(F)c3)c2cc1OC [Example 98, N-(2,4-difluorophenyl)-N′-[4-(6,7-dimethoxy-quinolin-4-yloxy)-2-fluorophenyl]malonamide] | 7.56 |
| COc1cc2nccc(Oc3ccc(NC(=O)CC(=O)Nc4ccc(F)cc4F)cc3F)c2cc1OC [Example 99, N-(2,4-difluorophenyl)-N′-[4-(6,7-dimethoxy-quinolin-4-yloxy)-3-fluorophenyl]malonamide] | 7.59 |
| COc1cc2nccc(Oc3ccc(NC(=O)CC(=O)Nc4ccccc4)cc3)c2cc1OC [Example 100, N-[4-(6,7-dimethoxyquinolin-4-yloxy)phenyl]-N′-phenylmalonamide] | 7.51 |
| COc1cc2nccc(Oc3ccc(NC(=O)CC(=O)NC4CCCCCC4)cc3)c2cc1OC [Example 101, N-cycloheptyl-N′-[4-(6,7-dimethoxyquinolin-4-yloxy)phenyl]malonamide] | 7.35 |
| COc1cc2nccc(Oc3ccc(NC(=O)CC(=O)Nc4ccc(F)cc4F)cc3)c2cc1OC [Example 102, N-(2,4-difluorophenyl)-N′-[4-(6,7-dimethoxy-quinolin-4-yloxy)phenyl]malonamide] | 7.04 |
| COc1cc2nccc(Oc3ccc(NC(=O)C(OC)C(=O)Nc4ccc(F)cc4F)cc3)c2cc1OC (stereo not shown) [Example 103, N-(2,4-difluorophenyl)-N′-[4-(6,7-dimethoxy-quinolin-4-yloxy)phenyl]-2-methoxymalonamide] | 5.56 |
| COc1cc2nccc(Oc3ccc(NC(=O)C(C)(C)C(=O)Nc4ccc(F)cc4F)cc3)c2cc1OC [Example 104, N-(2,4-difluorophenyl)-N′-[4-(6,7-dimethoxy-quinolin-4-yloxy)phenyl]-2,2-dimethylmalonamide] | 6.46 |
| COc1cc2nccc(Oc3ccc(NC(=O)NC(=O)Nc4cc(C)ccn4)cc3)c2cc1OC [Example 105, N-(4-methyl-2-pyridyl)-({[4-(6,7-dimethoxy-quinolin-4-yloxy)anilino]carbonyl}amino)methanamide] | 6.98 |
| COc1cc2c(Oc3ccc(NC(=O)NC(=O)Cc4ccccc4)cc3F)ccnc2cc1O [Example 106, N-{3-Fluoro-4-[(7-hydroxy-6-methoxy-4-quinolyl)-oxy]phenyl}-N′-(2-phenylacetyl)urea] | 7.37 |
